According to patent publication US10286034B2, “Uses of bremelanotide in therapy for female sexual dysfunction” (Palatin Technologies, Inc., priority 2012, dated 2019):

Experiment: Subcutaneous trials in males: vomiting and tolerability
Format: in vivo, human
Conditions: intramuscular administration, males

In the case of Cc1nccn1CC1CCc2c(c3ccccc3n2C)C1=O (stereo not shown) [ondansetron, reference compound], the “effect on bremelanotide-induced vomiting” value is reported as “Vomiting could be resolved”.
